Laboratory results published in ChEMBL document CHEMBL1201862, “PubChem BioAssay data set” (2004).
“And” between values parts separate entries of the source, which are not always exact repeats. Identical values can stand only once.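 Tested at 5 concentrations; 48 h exposure; 96-well plates; endpoints linearly interpolated, else capped at highest concentration. GI50 = concentration required for 50% inhibition of growth.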 The source made the active and inactive calls. Cut-off read from the data, not from the text of the source: active = GI50 up to about 1.1 µM and inactive = higher.

Experiments:
Assay in all cases: NCI anticancer screen, dose series, 48 h
NCI-H23 = tested on: NCI-H23
A549 = tested on: A549
HOP-18 = tested on: HOP-18
SW-620 = tested on: SW-620
SNB-78 = tested on: SNB-78
CCRF-CEM = tested on: CCRF-CEM
UACC-62 = tested on: UACC-62
NCI-H522 = tested on: NCI-H522
SN12C = tested on: SN12C
SK-MEL-28 = tested on: SK-MEL-28
UACC-257 = tested on: UACC-257
KM-20L2 = tested on: KM-20L2
HT-29 = tested on: HT-29
U-251 = tested on: U-251
IGROV-1 = tested on: IGROV-1
Malme-3M = tested on: Malme-3M
MOLT-4 = tested on: MOLT-4
HCT-15 = tested on: HCT-15
MDA-MB-435 = tested on: MDA-MB-435
DU-145 = tested on: DU-145

| SMILES | GI50 (NCI-H23) | GI50 (A549) | GI50 (HOP-18) | GI50 (SW-620) | GI50 (SNB-78) | GI50 (CCRF-CEM) | GI50 (UACC-62) | GI50 (NCI-H522) | GI50 (SN12C) | GI50 (SK-MEL-28) | GI50 (UACC-257) | GI50 (KM-20L2) | GI50 (HT-29) | GI50 (U-251) | GI50 (IGROV-1) | GI50 (Malme-3M) | GI50 (MOLT-4) | GI50 (HCT-15) | GI50 (MDA-MB-435) | GI50 (DU-145) |
| --- | --- | --- | --- | --- | --- | --- | --- | --- | --- | --- | --- | --- | --- | --- | --- | --- | --- | --- | --- | --- |
| COc1ccc(C(=O)CC(=O)C(=O)Nc2ccc(C)c(C)c2)cc1 | > 100 µM (inactive) | > 91.8 µM (inactive) | > 70.8 µM (inactive) | 28.4 µM (inactive) | > 100 µM (inactive) | 26.5 µM (inactive) | > 95.5 µM (inactive) | 68.9 µM (inactive) | > 91.6 µM (inactive) | > 100 µM (inactive) | > 100 µM (inactive) | > 77.1 µM (inactive) | > 100 µM (inactive) | 63.4 µM (inactive) | > 93.3 µM (inactive) | > 100 µM (inactive) | > 53.2 µM (inactive) | 31.3 µM |  |  |
| O/N=C1/C(=C/c2ccc(Cl)cc2)CCCC1C(NO)c1ccc(Cl)cc1 (stereo not drawn) | 20 µM (inactive) | 20.3 µM (inactive) | 20.3 µM (inactive) | 30.2 µM (inactive) | 21.9 µM (inactive) | 19.1 µM (inactive) | 29 µM (inactive) | 20.3 µM (inactive) | 19.3 µM (inactive) | 5.6 µM (inactive) | 17.2 µM (inactive) | 17.6 µM (inactive) | 19.2 µM (inactive) | 20.7 µM (inactive) | 38.2 µM (inactive) | 26.7 µM (inactive) | 14.7 µM (inactive) | 19.1 µM |  |  |
| O=C(c1ccccc1)c1nnn(Cc2ccccc2Cn2nnc(C(=O)c3ccccc3)c2C(=O)c2ccccc2)c1C(=O)c1ccccc1 | > 100 µM (inactive) | 48.2 µM (inactive) | > 100 µM (inactive) | > 100 µM (inactive) | > 100 µM (inactive) | > 100 µM (inactive) | > 100 µM (inactive) | > 100 µM (inactive) | > 100 µM (inactive) | > 100 µM (inactive) | > 100 µM (inactive) | > 100 µM (inactive) | > 100 µM (inactive) | > 100 µM (inactive) | 94.4 µM (inactive) | > 100 µM (inactive) | > 100 µM (inactive) | > 100 µM |  |  |
| COc1ccc(-c2c(C3=NCCCN3)nnn2-c2ccc([N+](=O)[O-])cc2)cc1 | > 100 µM (inactive) | > 100 µM (inactive) | > 100 µM (inactive) | > 100 µM (inactive) | > 100 µM (inactive) | > 100 µM (inactive) | > 100 µM (inactive) | > 100 µM (inactive) | > 100 µM (inactive) | > 100 µM (inactive) | > 100 µM (inactive) | > 100 µM (inactive) | > 100 µM (inactive) | > 100 µM (inactive) | > 100 µM (inactive) | > 100 µM (inactive) | > 100 µM (inactive) | > 100 µM |  |  |
| CCCCCCC(=O)CC(=O)C(=O)Nc1ccccc1C | > 100 µM (inactive) | > 100 µM (inactive) | > 100 µM (inactive) | > 39.7 µM (inactive) | > 100 µM (inactive) | > 100 µM (inactive) | > 100 µM (inactive) | > 68.5 µM (inactive) | > 100 µM (inactive) | > 100 µM (inactive) | > 100 µM (inactive) | > 100 µM (inactive) | > 100 µM (inactive) | > 89.1 µM (inactive) | > 100 µM (inactive) | > 100 µM (inactive) | > 100 µM (inactive) | > 44.4 µM |  |  |
| COc1ccc(-c2c(C3=NCCN3)nnn2-c2ccccc2)cc1 | > 100 µM (inactive) | > 100 µM (inactive) | > 100 µM (inactive) | > 100 µM (inactive) | > 100 µM (inactive) | > 100 µM (inactive) | > 100 µM (inactive) | > 100 µM (inactive) | > 100 µM (inactive) | > 100 µM (inactive) | > 100 µM (inactive) | > 100 µM (inactive) | 91.2 µM (inactive) | > 100 µM (inactive) | > 100 µM (inactive) | > 100 µM (inactive) | > 100 µM (inactive) | > 100 µM |  |  |
| CSC1=Nc2ccccc2N=C(c2ccccc2)C1 | 50.2 µM (inactive) | 80.2 µM (inactive) | > 100 µM (inactive) | 15.1 µM (inactive) | > 100 µM (inactive) | 21 µM (inactive) | > 100 µM (inactive) | 37.6 µM (inactive) | > 100 µM (inactive) | > 100 µM (inactive) | 33.1 µM (inactive) | 35.4 µM (inactive) | 46.7 µM (inactive) | > 100 µM (inactive) | > 100 µM (inactive) | > 100 µM (inactive) | 27.9 µM (inactive) | 33.3 µM |  |  |
| CC(C)(Oc1ccc(/C=C/C(=O)c2ccccc2)cc1)C(=O)Nc1c(Cl)cccc1Cl | 7.33 µM (inactive) | > 10 µM (inactive) | > 10 µM (inactive) | 7.08 µM (inactive) | > 10 µM (inactive) | 15 µM (inactive) | > 10 µM (inactive) | 4.67 µM (inactive) | > 10 µM (inactive) | > 10 µM (inactive) | > 10 µM (inactive) | > 10 µM (inactive) | > 10 µM (inactive) | 7.14 µM (inactive) | > 10 µM (inactive) | > 10 µM (inactive) | > 10 µM (inactive) | > 10 µM |  |  |
| Cc1nc(Nc2ccc(Cl)cc2)sc1C(=O)NNC(=O)C(=O)NN | 16.6 µM (inactive) | 21 µM (inactive) | 16.2 µM (inactive) | 18 µM (inactive) | 26.9 µM (inactive) | 22.2 µM (inactive) | 15.3 µM (inactive) | 17.2 µM (inactive) | 16.1 µM (inactive) | 22.8 µM (inactive) | 25.1 µM (inactive) | 16.3 µM (inactive) | 16.6 µM (inactive) | 19.1 µM (inactive) | 19.1 µM (inactive) | 21.9 µM (inactive) | 19.5 µM (inactive) | 17.1 µM |  |  |
| O=[N+]([O-])c1ccc(-n2nnc(C3=NCCN3)c2-c2ccc(Cl)cc2)cc1 | > 100 µM (inactive) | > 100 µM (inactive) | > 100 µM (inactive) | > 100 µM (inactive) | > 100 µM (inactive) | > 100 µM (inactive) | > 100 µM (inactive) | > 100 µM (inactive) | > 100 µM (inactive) | > 100 µM (inactive) | > 100 µM (inactive) | > 100 µM (inactive) | 66.8 µM (inactive) | > 100 µM (inactive) | > 100 µM (inactive) | > 100 µM (inactive) | 65.3 µM (inactive) | > 100 µM |  |  |
| c1ccc(-c2nnc(-c3nn(-c4ccccc4)c4nc5ccccc5nc34)o2)cc1 | 41.2 µM (inactive) | > 100 µM (inactive) | 20 µM (inactive) | 92.3 µM (inactive) | > 100 µM (inactive) | 18.6 µM (inactive) | 69.2 µM (inactive) | 44.9 µM (inactive) | > 100 µM (inactive) | > 100 µM (inactive) | 64.3 µM (inactive) | > 100 µM (inactive) | > 100 µM (inactive) | 85.1 µM (inactive) | > 100 µM (inactive) | 45.5 µM (inactive) | 21.5 µM (inactive) | 43.5 µM |  |  |
| NC1=NC(=O)/C(=C2\CCNC(=O)c3[nH]c(Br)cc32)N1 [HYMENIALDISINE] | 80.9 µM (inactive) and 52.7 µM (inactive) | > 70.3 µM (inactive) | > 45.1 µM (inactive) |  | 86.3 µM (inactive) | 2.43 µM (inactive) and 2.9 µM (inactive) | 13.4 µM (inactive) and 9.62 µM (inactive) |  | 19.5 µM (inactive) and 11.3 µM (inactive) | 7.74 µM (inactive) and 13.8 µM (inactive) | 23.7 µM (inactive) and 18.3 µM (inactive) | 70.1 µM (inactive) |  | 26.4 µM (inactive) and 18.6 µM (inactive) |  |  | 4.28 µM (inactive) and 3.45 µM (inactive) | 29.7 µM and 42.5 µM | 5.58 µM (inactive) | 39.6 µM (inactive) |
